Active and inactive are the calls of the source. The rule behind the calls is not given here.
Test system: rodent carcinogenicity bioassays, tumor incidence
Test: CCRIS carcinogenicity studies
Summary of the method: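 NCI-built, expert-reviewed records of carcinogenicity and related test outcomes (mutagenicity, tumor promotion/inhibition) compiled from published and report sources, historical span 1985-2011, not updated.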

CC(Cl)CCCC(Cl)CCCC(Cl)CCCC(Cl)CCCC(Cl)CCCC(Cl)CCCl (centres undefined) was tested, and the carcinogen call (Species: MOUSE, Strain/Sex: B6C3F1/FEMALE, Route: GAVAGE, Dose: 0, 2500, 5000 MG/KG IN CORN OIL 5 D/WK FOR 103 WK (STUDY DURATION: 103 WK), Dose: 0, 2500, 5000 MG/KG IN CORN OIL 5 D/WK FOR 103 WK (STUDY DURATION: 103 WK), Tumor Site: Type of Lesion: LIVER: HEPATOCELLULAR ADENOMA, HEPATOCELLULAR CARCINOMA) was “equivocal”, the carcinogen call (Species: MOUSE, Strain/Sex: B6C3F1/MALE, Route: GAVAGE, Dose: 0, 2500, 5000 MG/KG IN CORN OIL 5 D/WK FOR 103 WK (STUDY DURATION: 103 WK), Dose: 0, 2500, 5000 MG/KG IN CORN OIL 5 D/WK FOR 103 WK (STUDY DURATION: 103 WK), Tumor Site: Type of Lesion: HEMATOPOIETIC SYSTEM: MALIGNANT LYMPHOMA) was “active; positive” and the carcinogen call (Species: RAT, Strain/Sex: F344/FEMALE, Route: GAVAGE, Dose: 0, 100, 300, 900 MG/KG IN CORN OIL 5 D/WK FOR 103 WK (STUDY DURATION: 103 WK), Dose: 0, 100, 300, 900 MG/KG IN CORN OIL 5 D/WK FOR 103 WK (STUDY DURATION: 103 WK), Tumor Site: Type of Lesion: ADRENAL GLAND: MEDULLARY PHEOCHROMOCYTOMA) was “equivocal”. For the same molecule, the carcinogen call (Species: RAT, Strain/Sex: F344/MALE, Route: GAVAGE, Dose: 0, 1875, 3750 MG/KG IN CORN OIL 5 D/WK FOR 103 WK (STUDY DURATION: 103 WK), Dose: 0, 1875, 3750 MG/KG IN CORN OIL 5 D/WK FOR 103 WK (STUDY DURATION: 103 WK)) was “inactive; negative”.
For CCCCOCCO, the carcinogen call (Species: MOUSE, Strain/Sex: B6C3F1/FEMALE, Route: INHALATION, Dose: 0, 62.5, 125, 250 PPM 6 HR/D 5D/WK FOR 104 WK (STUDY DURATION: 104 WK), Dose: 0, 62.5, 125, 250 PPM 6 HR/D 5D/WK FOR 104 WK (STUDY DURATION: 104 WK), Tumor Site: Type of Lesion: FORESTOMACH: SQUAMOUS CELL PAPILLOMA OR CARCINOMA) was “active; positive”, the carcinogen call (Species: MOUSE, Strain/Sex: B6C3F1/MALE, Route: INHALATION, Dose: 0, 62.5, 125, 250 PPM 6 HR/D 5D/WK FOR 104 WK (STUDY DURATION: 104 WK), Dose: 0, 62.5, 125, 250 PPM 6 HR/D 5D/WK FOR 104 WK (STUDY DURATION: 104 WK), Tumor Site: Type of Lesion: LIVER: HEMANGIOSARCOMA, HEPATOCELLULAR CARCINOMA) was “active; positive” and the carcinogen call (Species: RAT, Strain/Sex: F344/FEMALE, Route: INHALATION, Dose: 0, 31.2, 62.5, 125 PPM 6 HR/D 5D/WK FOR 104 WK (STUDY DURATION: 104 WK), Dose: 0, 31.2, 62.5, 125 PPM 6 HR/D 5D/WK FOR 104 WK (STUDY DURATION: 104 WK), Tumor Site: Type of Lesion: ADRENAL MEDULLA: BENIGN OR MALIGNANT PHEOCHROMOCYTOMA) was “equivocal”. The carcinogen call (Species: RAT, Strain/Sex: F344/MALE, Route: INHALATION, Dose: 0, 31.2, 62.5, 125 PPM 6 HR/D 5D/WK FOR 104 WK (STUDY DURATION: 104 WK), Dose: 0, 31.2, 62.5, 125 PPM 6 HR/D 5D/WK FOR 104 WK (STUDY DURATION: 104 WK)) was “inactive; negative”.
C1CC2OC2CC1C1CO1 (centres undefined) was tested, and the carcinogen call (Species: MOUSE, Route: DERMAL, Tumor Site: Type of Lesion: INTEGUMENTARY SYSTEM (SKIN)) was “active; positive”, the carcinogen call (Species: MOUSE, Strain/Sex: B6C3F1/FEMALE, Route: DERMAL, Dose: 0, 2.5, 5, 10 MG/MOUSE IN ACETONE 5 D/WK FOR 103 WK, HIGH DOSE FEMALE MICE 85 WK (STUDY DURATION: 105 WK), Dose: 0, 2.5, 5, 10 MG/MOUSE IN ACETONE 5 D/WK FOR 103 WK, HIGH DOSE FEMALE MICE 85 WK (STUDY DURATION: 105 WK), Tumor Site: Type of Lesion: LUNG: ALVEOLAR/BRONCHIOLAR ADENOMA OR CARCINOMA, OVARY: GRANULOSA CELL TUMOR, GRANULOSA CELL TUMOR OR MALIGNANT GRANULOS) was “active; positive” and the carcinogen call (Species: MOUSE, Strain/Sex: B6C3F1/MALE, Route: DERMAL, Dose: 0, 2.5, 5, 10 MG/MOUSE IN ACETONE 5 D/WK FOR 103 WK (STUDY DURATION: 105 WK), Dose: 0, 2.5, 5, 10 MG/MOUSE IN ACETONE 5 D/WK FOR 103 WK (STUDY DURATION: 105 WK), Tumor Site: Type of Lesion: SKIN (APPLICATION SITE): BASOSQUAMOUS TUMOR MALIGNANT, BASOSQUAMOUS TUMOR MALIGNANT OR BASAL CELL CARCINOMA, SQUAMOUS CE) was “active; positive”. The carcinogen call (Species: RAT, Strain/Sex: F344/FEMALE, Route: DERMAL, Dose: 0, 15, 30 MG/RAT IN ACETONE 5 D/WK FOR 105 WK (STUDY DURATION: 106 WK), Dose: 0, 15, 30 MG/RAT IN ACETONE 5 D/WK FOR 105 WK (STUDY DURATION: 106 WK), Tumor Site: Type of Lesion: SKIN (APPLICATION SITE): BASAL CELL CARCINOMA, SEBACEOUS GLAND ADENOMA OR BASAL CELL CARCINOMA, SQUAMOUS CELL CARCINOMA) was “active; positive” and the carcinogen call (Species: RAT, Strain/Sex: F344/MALE, Route: DERMAL, Dose: 0, 15, 30 MG/RAT IN ACETONE 5 D/WK FOR 105 WK (STUDY DURATION: 106 WK), Dose: 0, 15, 30 MG/RAT IN ACETONE 5 D/WK FOR 105 WK (STUDY DURATION: 106 WK), Tumor Site: Type of Lesion: SKIN (APPLICATION SITE): BASAL CELL ADENOMA, BASAL CELL CARCINOMA, BASAL CELL ADENOMA OR SEBACEOUS GLAND ADENOMA, SQUAMO) was “active; positive”.
In the case of CCS(=O)(=O)c1ccc(S(N)(=O)=O)c2ccccc12, the carcinogen call (Species: MOUSE, Strain/Sex: A X 1F/FEMALE, Route: ORAL, Dose: 0, 0.01% IN POWDERED OXOID DIET (STUDY DURATION: 333-701 D), Tumor Site: Type of Lesion: BLADDER: CARCINOMA, LUNG: ADENOMA) is reported as “active; positive” and the carcinogen call (Species: MOUSE, Strain/Sex: A X 1F/FEMALE, Route: ORAL, Dose: 0, 0.01% IN POWDERED OXOID DIET PRECEDED BY IRRADIATION OF 1000 RAD WITH UPPER BODY SHIELDED 48H PRIOR TO DOSING (STUDY, Tumor Site: Type of Lesion: BLADDER: CARCINOMA, LUNG: ADENOMA) is reported as “active; positive”.
With O[C@@H]1C=Cc2c(ccc3cc4ccccc4nc23)[C@H]1O the carcinogen call (Species: MOUSE, Strain/Sex: SWISS/FEMALE, Route: INTRAPERITONEAL, Dose: 0, 1.05 UMOL GIVEN AS 150 NMOL IN 5 µL DMSO WITHIN 24 HR OF BIRTH, 300 NMOL IN 10 µL DMSO ON D 8 OF LIFE, AND 600 NMOL I, Tumor Site: Type of Lesion: LUNG: ADENOMA) was “active; positive” and the carcinogen call (Species: MOUSE, Strain/Sex: SWISS/MALE, Route: INTRAPERITONEAL, Dose: 0, 1.05 UMOL GIVEN AS 150 NMOL IN 5 µL DMSO WITHIN 24 HR OF BIRTH, 300 NMOL IN 10 µL DMSO ON D 8 OF LIFE, AND 600 NMOL I, Tumor Site: Type of Lesion: LUNG: ADENOMA, LIVER: NEOPLASTIC NODULE) was “active; positive”.
For NCC1(CC(=O)O)CCCCC1, the carcinogen call (Species: RAT, Strain/Sex: WISTAR/FEMALE, Route: ORAL, Dose: 0, 250, 1000, 2000 MG/KG IN DIET FOR 104 WK (STUDY DURATION: 104 WK), Dose: 0, 250, 1000, 2000 MG/KG IN DIET FOR 104 WK (STUDY DURATION: 104 WK)) was “inactive; negative” and the carcinogen call (Species: RAT, Strain/Sex: WISTAR/MALE, Route: ORAL, Dose: 0, 250, 1000, 2000 MG/KG IN DIET FOR 104 WK (STUDY DURATION: 104 WK), Dose: 0, 250, 1000, 2000 MG/KG IN DIET FOR 104 WK (STUDY DURATION: 104 WK), Tumor Site: Type of Lesion: PANCREAS: ACINAR CELL ADENOMA, ACINAR CELL CARCINOMA) was “active; positive”.
For CNC(=O)Oc1ccc2c(c1)[C@]1(C)CCN(C)[C@@H]1N2C, the carcinogen call (Species: RAT, Strain/Sex: SPRAGUE-DAWLEY/FEMALE (70/GROUP), Route: SUBCUTANEOUS (INGUINAL REGION), Dose: 0, 3.3 UG/KG BW, 2/D FOR 5 D (STUDY DURATION: 28 MO), Dose: 0, 3.3 UG/KG BW, 2/D FOR 5 D (STUDY DURATION: 28 MO), Tumor Site: Type of Lesion: MAMMARY GLAND: TUMOR) was “active; positive”.
In the case of COc1cc(OC)nc(Oc2cccc(Oc3nc(OC)cc(OC)n3)c2C(=O)O)n1, the carcinogen call (Species: Mouse, Strain/Sex: B6C3F1/Female (50/sex/dose), Route: Oral, Dose: 0, 10, 100, 2500, 5000 ppm in diet for 104 wk, Dose: 0, 10, 100, 2500, 5000 ppm in diet for 104 wk) is reported as “inactive; negative; purity 98.4%; interim sacrifices of 10 additional animals/sex/dose at”, the carcinogen call (Species: Mouse, Strain/Sex: B6C3F1/Male (50/sex/dose), Route: Oral, Dose: 0, 10, 100, 2500, 5000 ppm in diet for 104 wk, Dose: 0, 10, 100, 2500, 5000 ppm in diet for 104 wk) is reported as “inactive; negative; purity 98.4%; interim sacrifices of 10 additional animals/sex/dose at” and the carcinogen call (Species: Rat, Strain/Sex: F344/Female (48/sex/dose), Route: Oral, Dose: 0, 20, 200, 3000, 10000 ppm in diet for 104 wk, Dose: 0, 20, 200, 3000, 10000 ppm in diet for 104 wk) is reported as “inactive; negative; purity 97.2%; interim sacrifices of 10 additional animals/sex/dose at”. For the same molecule, the carcinogen call (Species: Rat, Strain/Sex: F344/Male (48/sex/dose), Route: Oral, Dose: 0, 20, 200, 3500, 7000 ppm in diet for 104 wk, Dose: 0, 20, 200, 3500, 7000 ppm in diet for 104 wk) was “inactive; negative; purity 97.2%; interim sacrifices of 10 additional animals/sex/dose at”.
